From patent US8835470B2, “Mandelamide heterocyclic compounds” (Bristol-Myers Squibb Company, priority 2010, dated 2014)
Structures can show the parent of a compound that is named as a salt.

Key:
S1P1 [1] = target: T1, S1P1 (Homo sapiens (Human), UniProt P21453); experiment: S1P1 Binding Assay; conditions: membranes from CHO cells expressing human S1P1; 33P-S1P ligand; rounded to two digits
Method: Membranes were prepared from CHO cells expressing human S1P1. Cells were dissociated in buffer containing 20 mM HEPES, pH 7.5, 50 mM NaCl, 2 mM EDTA and Protease Inhibitor cocktail (Roche), and disrupted on ice using the Polytron homogenizer. The homogenate was centrifuged at 20,000 rpm (48,000 G) and the supernatant was discarded. The membrane pellets were resuspended in buffer containing 50 mM HEPES, pH 7.5, 100 mM NaCl, 1 mM MgCl2, 2 mM EDTA and stored in aliquots at −80° C. after protein concentration determination. Membranes (2 μg/well) and 0.03 nM final concentration of ^33P-S1P ligand (1 mCi/ml, American Radiolabeled Chemicals) were added to the compound plates. Binding was performed for 45 minutes at room temperature, terminated by collecting the membranes onto GF/B filter plates, and radioactivity was measured by TOPCOUNT®. The competition data of the test compounds over a range of concentrations was plotted as percentage inhibition of radioligand specific binding. The IC50 is defined as the concentration of competing ligand needed to reduce specific binding by 50%.
The results in Table A were rounded to two digits.

S1P3 = S1P3 (Homo sapiens (Human), UniProt Q99500); experiment: Receptor [35S] GTPγS Binding Assay, S1P3; format: biochemical; conditions: membranes from EDG3-Ga15-bla HEK293T cells; * detection limit 62,500 nM, ** detection limit 32,500 nM
Method: (§1) Receptor [35S] GTPγS Binding Assays
(§2) Compounds were loaded in a 384 FALCON® v-bottom plate (0.5 μl/well in a 3-fold dilution). Membranes prepared from S1P1/CHO cells or EDG3-Ga15-bla HEK293T cells were added to the compound plate (40 μl/well, final protein 3 μg/well) with MULTIDROP®. [^35S]GTP (1250 Ci/mmol, Perkin Elmer) was diluted in assay buffer: 20 mM HEPES, pH7.5, 10 mM MgCl2, 150 mM NaCl, 1 mM EGTA, 1 mM DTT, 10 μM GDP, 0.1% fatty acid free BSA, and 10 μg/ml Saponin to 0.4 nM. 40 μl of the [^35S] GTP solution was added to the compound plate with a final concentration of 0.2 nM. The reaction was kept at room temperature for 45 min. At the end of incubation, all the mixtures in the compound plate were transferred to a 384 well FB filter plates via GPCR robot system. The filter plate was washed with water 4 times by using the modified manifold Embla plate washer and dried at 60° C. for 45 min. 30 μl of MicroScint 20 scintillation fluid was added to each well for counting at Packard TOPCOUNT®. EC50 is defined as the agonist concentration that corresponds to 50% of the Ymax (maximal response) obtained for each individual compound tested.
A smaller value for GTPγS S1P1 EC50 value indicated greater activity for the compound in the GTPγS S1P1 binding assay. A larger value for the GTPγS S1P3 EC50 value indicated less activity in the GTPγS S1P3 binding assay.

circulating lymphocytes = experiment: Blood Lymphocyte Reduction Assay (BLR) in Rodents; format: in vivo; conditions: Rattus norvegicus, Lewis rats, oral, 4 hr, vs vehicle group
Method: Blood Lymphocyte Reduction Assay (BLR) in Rodents
Lewis rats were dosed orally with test article (as a solution or suspension in the vehicle) or vehicle alone (polyethylene glycol 300, “PEG300”). Blood was drawn at 4 hr by retro-orbital bleeding. Blood lymphocyte counts were determined on an ADVIA® 120 Hematology Analyzer (Siemens Healthcare Diagnostics). The results were measured as a reduction in the percentage of circulating lymphocytes as compared to the vehicle treated group at the 4 hr measurement. The results represent the average results of all animals within each treatment group (n=3-4).
The following examples were tested in the Blood Lymphocyte Reduction assay (BLR) described hereinabove and the results are shown in Table D for rats.

S1P1 [2] = target: T1, S1P1; experiment: Receptor [35S] GTPγS Binding Assay, S1P1; format: biochemical; conditions: for EC50: membranes from S1P1/CHO cells, [35S]GTP; for GTPγS S1P3/S1P1: ratio of GTPγS S1P3 EC50 to GTPγS S1P1 EC50, * and ** S1P3 value at detection limit
Method: as §1
as §2, with “Membranes” for “Compounds were loaded in a 384 FALCON® v-bottom plate (0.5 μl/well in a 3-fold dilution). Membranes”, “TOPCOUNT®.” for “TOPCOUNT®. EC50 is defined as the agonist concentration that corresponds to 50% of the Ymax (maximal response) obtained for each individual compound tested.”
A larger value for the GTPγS S1P3 EC50 value indicated less activity in the GTPγS S1P3 binding assay.

S1P3, sequence (Q99500 whole entry): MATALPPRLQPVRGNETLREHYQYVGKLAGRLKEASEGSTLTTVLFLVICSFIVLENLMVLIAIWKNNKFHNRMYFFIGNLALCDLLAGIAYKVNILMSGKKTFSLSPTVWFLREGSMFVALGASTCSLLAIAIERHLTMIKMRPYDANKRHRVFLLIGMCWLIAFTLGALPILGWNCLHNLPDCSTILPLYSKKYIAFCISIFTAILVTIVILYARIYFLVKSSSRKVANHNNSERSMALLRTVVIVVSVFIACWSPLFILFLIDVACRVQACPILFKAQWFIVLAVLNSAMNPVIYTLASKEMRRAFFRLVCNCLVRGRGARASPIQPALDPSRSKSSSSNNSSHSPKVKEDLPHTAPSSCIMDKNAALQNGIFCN
T1 sequence (P21453 whole entry): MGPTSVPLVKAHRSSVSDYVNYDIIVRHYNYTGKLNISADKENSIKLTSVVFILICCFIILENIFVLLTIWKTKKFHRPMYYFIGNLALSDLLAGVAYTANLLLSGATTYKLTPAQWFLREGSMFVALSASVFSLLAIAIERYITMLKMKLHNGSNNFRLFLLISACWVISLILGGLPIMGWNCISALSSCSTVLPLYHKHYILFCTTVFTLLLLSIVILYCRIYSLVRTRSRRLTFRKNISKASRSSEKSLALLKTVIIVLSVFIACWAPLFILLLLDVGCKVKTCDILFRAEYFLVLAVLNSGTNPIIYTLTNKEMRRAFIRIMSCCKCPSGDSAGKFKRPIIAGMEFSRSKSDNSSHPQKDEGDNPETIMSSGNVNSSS

| Compound | IC50 (S1P1 [1]) [µM] | EC50 (S1P3) [µM] | inhibition in vivo at 1 mg/kg (circulating lymphocytes) [%] | EC50 (S1P1 [2]) [µM] | GTPγS S1P3/S1P1 (S1P1 [2]) | inhibition in vivo at 3 mg/kg (circulating lymphocytes) [%] |
| --- | --- | --- | --- | --- | --- | --- |
| O=C(NC1CCS(=O)(=O)C1)C(O)c1ccc(-c2noc(-c3onc(-c4ccccc4)c3C(F)(F)F)n2)cc1 (centres unmarked) [Example 31, 2-Hydroxy-2-(4-(5-(3-phenyl-4-(trifluoromethyl)isoxazol-5-yl)-1,2,4-oxadiazol-3-yl)phenyl)-N-(3,3-dioxide-tetrahydrothiophen-3-yl)acetamide] | 0.0045 | 9.54 | 54 | 0.0119 | 802 |  |
| O=C(NCCC(=O)N1CC(O)C1)C(O)c1ccc(-c2noc(-c3onc(-c4ccccc4)c3C(F)(F)F)n2)cc1 (racemic) [Example 93, (R/S)-2-Hydroxy-N-(3-(3-hydroxyazetidin-1-yl)-3-oxopropyl)-2-(4-(5-(3-phenyl-4-(trifluoromethyl)isoxazol-5-yl)-1,2,4-oxadiazol-3-yl)phenyl)acetamide] | 0.0029 | 12 |  | 0.0058 | 2060 | 73 |
| O=C(NCCO)C(O)c1ccc(-c2noc(-c3onc(-c4ccccc4)c3C(F)(F)F)n2)cc1 (single isomer, unassigned) [Example 71, 2-Hydroxy-N-(2-hydroxyethyl)-2-(4-(5-(3-phenyl-4-(trifluoromethyl)isoxazol-5-yl)-1,2,4-oxadiazol-3-yl)phenyl)acetamide] | 0.00085 | 10.5 | 71 | 0.002 | 5234 |  |
| N#CC1(NC(=O)C(O)c2ccc(-c3noc(-c4onc(-c5ccccc5)c4C(F)(F)F)n3)cc2)CC1 (single isomer, unassigned) [Example 41, N-(1-Cyanocyclopropyl)-2-hydroxy-2-(4-(5-(3-phenyl-4-(trifluoromethyl)isoxazol-5-yl)-1,2,4-oxadiazol-3-yl)phenyl)acetamide] | 0.0026 | 3.64 | 80 | 0.0157 | 232 |  |
| CC(C)(O)CNC(=O)CCNC(=O)C(O)c1ccc(-c2noc(-c3onc(-c4ccccc4)c3C(F)(F)F)n2)cc1 (single isomer, unassigned) [Example 6, 3-(2-Hydroxy-2-(4-(5-(3-phenyl-4-(trifluoromethyl)isoxazol-5-yl)-1,2,4-oxadiazol-3-yl)phenyl)acetamido)-N-(2-hydroxy-2-methylpropyl)propanamide] | 0.00046 | 3.13 |  | 0.00067 | 4679 | 73 |
| O=C(NCc1ncc[nH]1)C(O)c1ccc(-c2noc(-c3onc(-c4ccccc4)c3C(F)(F)F)n2)cc1 (single isomer, unassigned) [Example 17, N-((1H-Imidazol-2-yl)methyl)-2-hydroxy-2-(4-(5-(3-phenyl-4-(trifluoromethyl)isoxazol-5-yl)-1,2,4-oxadiazol-3-yl)phenyl)acetamide-TFA] | 0.0067 | 6.91 |  | 0.0067 | 1031 | 69 |
| C[C@@H](C#N)NC(=O)C(O)c1ccc(-c2noc(-c3onc(-c4ccccc4)c3C(F)(F)F)n2)cc1 (stereo partly drawn) [Example 40, N-((S)-1-Cyanoethyl)-2-hydroxy-2-(4-(5-(3-phenyl-4-(trifluoromethyl)isoxazol-5-yl)-1,2,4-oxadiazol-3-yl)phenyl)acetamide] |  |  | 80 |  |  |  |
| CN(C)C(=O)CCNC(=O)C(O)c1ccc(-c2noc(-c3onc(-c4ccccc4)c3C(F)(F)F)n2)cc1 (single isomer, unassigned) [Example 74, 3-(2-Hydroxy-2-(4-(5-(3-phenyl-4-(trifluoromethyl)isoxazol-5-yl)-1,2,4-oxadiazol-3-yl)phenyl)acetamido)-N,N-dimethylpropanamide] | 0.0003 | 3.43 |  | 0.0019 | 1805 | 84 |
| CCNC(=O)C(O)c1ccc(-c2noc(-c3noc(-c4ccccc4)c3C(F)(F)F)n2)cc1 (racemic) [Example 67, (R/S)-N-Ethyl-2-hydroxy-2-(4-(5-(5-phenyl-4-(trifluoromethyl)isoxazol-3-yl)-1,2,4-oxadiazol-3-yl)phenyl)acetamide] | 0.017 | 17.5 |  | 0.0174 | 1006 |  |
| O=C(NCc1cc2ccccc2[nH]1)C(O)c1ccc(-c2noc(-c3onc(-c4ccccc4)c3C(F)(F)F)n2)cc1 (racemic) [Example 86, (R/S)-N-((1H-Indol-2-yl)methyl)-2-hydroxy-2-(4-(5-(3-phenyl-4-(trifluoromethyl)isoxazol-5-yl)-1,2,4-oxadiazol-3-yl)phenyl)acetamide] | 0.18 | > 31.2 |  | 1.56 | > 20** |  |
